In US9585387B1, “PEHAM dendrimers for use in agriculture” (Starpharma Pty Ltd, priority 2009, dated 2017):
≈ marks a conversion by molar mass, not a printed value.

Legend:
[1] = Solubility of active constituents in dendrimer solutions by HPLC (Example 26); type: physicochemical
Protocol: Four PEHAM dendrimers, each at 10 g/L and 100 g/L in water, were used for evaluation. A 15 g of each dendrimer was dissolved in distilled water and made accurately to 150 mL volume. Determination of pH was then made using a calibrated pH meter and electrode.
To prepare saturated solutions of active constituent in 100 g/L dendrimer solutions, 10 mL of each 100 g/L dendrimer solution was placed into a 50 mL test tube and 0.2 g of active constituent was then also added. The test tube was then briefly shaken to disperse the contents, before being placed in an ultrasonic water bath, and subjected to sonication for 30 mins at […] The test tube and contents were then cooled to […] and then a 2.0 mL aliquot was taken and filtered through a 0.45 μm PTFE membrane filter.
To prepare saturated solutions of active constituent in 10 g/L dendrimer solutions, 1.0 mL of each 100 g/L dendrimer solution was placed into a 50 mL test tube and a 9.0 mL aliquot of distilled water added and 0.2 g of active constituent was then also added. The test tube was then briefly shaken to disperse the contents, before being placed in an ultrasonic water bath, and subjected to sonication for 30 mins at […] The test tube and contents were then cooled to […] and then a 2.0 mL aliquot was taken and filtered through a 0.45 μm PTFE membrane filter
Each prepared and filtered solution was examined in a light box for Tyndall Scattering (light scattering by particles in a colloid or particles in a fine suspension). A visual observation was made and recorded for each solution. Ten active constituents that were selected to cover a range of water solubility were treated according to the method described here. A total of 200 filtered solutions were prepared.
High Performance Liquid Chromatography was used to analyse each active constituent in each dendrimer solution. Each saturated active constituent solution was freshly prepared for immediate analysis or frozen at <−15° C. where analysis could not take place within 2 hours of preparation. The following are details of the HPLC equipment used. For each active constituent a set of 4 calibration solutions was prepared 0 to 25 ppm. A sequence of injections comparing the peak area of the calibration solutions and the dendrimer solutions was then undertaken. The dendrimer solutions were diluted as required to maintain their respective peak area response within the calibration range. The active constituent concentration (ppm) in the dendrimer solution was determined by calculation: RF×SA×DF, where RF=Response Factor (concentration of calibration solution per unit of peak area, SA=Sample Peak Area (peak area of the sample solution), and DF=Dilution Factor (dilution of the sample solution). HPLC conditions were varied to ensure the optimum detection and separation of each active constituent from excipients.

physchem = type: physicochemical; conditions: water; at pH 7; trifluralin control without dendrimer; read-out: Solubility assessment by GC assay
Protocol: To a 10% w/w solution of agrochemical active dissolved in a suitable volatile organic solvent, (e.g., MeOH, DCM, EtOH, acetone or other appropriate solvent) was added a 10% w/w solution of dendrimer in either water or the same organic solvent as above. The mixture was left to stir for 2-4 h after which time the volatile organic solvent was then removed under reduced pressure to provide a 1:1 mixture of the active and dendrimer. This oily solution was then dissolved in water and filtered. Analysis of active content in the aqueous solution by HPLC or GC assay provided an estimate of the solubility increase due to the addition of the dendrimer.

[2] = tested on: Avena sativa (cv. Echidna); test: Brownout of oat seedlings after track-sprayer application (Example 21); type: in vivo; conditions: concentrations of 0.1% v/v and above; with GrowChoice 450 g/L glyphosate
Protocol: The experiment tested whether the addition of dendrimers at various concentrations increased penetration into plant tissue and thus improved the rate of kill utilizing the herbicide glyphosate IPA (GrowChoice® 450 g/L present as the isopropylamine salt). Oats were selected for assessment of glyphosate efficacy because there is less genetic variation. All dosing was carried out at sublethal doses in order to witness a dose effect which is enhanced with dendrimer. A standard dose in the positive control would result in death of the oats and would be presumably replicated in the dendrimer treatments.
Avena sativa (cv. Echidna) was sown in 10 cm diameter pots filled with potting mix (AS 3743). Enough seeds were planted to ensure a minimum of seven seedlings per treatment group. Seeds were germinated in a temperature-controlled greenhouse (14° C.-25° C.) for 7 days. […]
The herbicide, glyphosate IPA (GrowChoice® 450 g/L present as the isopropylamine salt), was applied using an enclosed laboratory track-sprayer fitted with three 110° flat fan nozzles (Teejet XR11001-VS) spaced at 50 cm intervals across the boom. […] A total of 5 concentrations of the Example 2 G1-OH dendrimer (0.01, 0.05, 0.1, 0.2 & 0.5% v/v) were evaluated for enhancement of herbicidal effect at each of the rates of glyphosate tested (35, 70, 140 & 280 g ai/ha).
After 10 days the treated plants were assessed for % brownout. […]

Compound | Ratio of Active Ingredient in Dendrimer Solution (ppm) to Active Ingredient in Water (ppm) ([1]; 6-BAP, 10 g/L loading) | Ratio of Active Ingredient in Dendrimer Solution (ppm) to Active Ingredient in Water (ppm) ([1]; 6-BAP, 100 g/L loading) | Ratio of Active Ingredient in Dendrimer Solution (ppm) to Active Ingredient in Water (ppm) ([1]; Bifenthrin, 10 g/L loading) | Ratio of Active Ingredient in Dendrimer Solution (ppm) to Active Ingredient in Water (ppm) ([1]; Bifenthrin, 100 g/L loading) | Ratio of Active Ingredient in Dendrimer Solution (ppm) to Active Ingredient in Water (ppm) ([1]; Clomazone, 10 g/L loading) | Ratio of Active Ingredient in Dendrimer Solution (ppm) to Active Ingredient in Water (ppm) ([1]; Clomazone, 100 g/L loading) | Ratio of Active Ingredient in Dendrimer Solution (ppm) to Active Ingredient in Water (ppm) ([1]; Flumetsulam, 10 g/L loading) | Ratio of Active Ingredient in Dendrimer Solution (ppm) to Active Ingredient in Water (ppm) ([1]; Flumetsulam, 100 g/L loading) | Ratio of Active Ingredient in Dendrimer Solution (ppm) to Active Ingredient in Water (ppm) ([1]; Mcylobutanil, 10 g/L loading) | Ratio of Active Ingredient in Dendrimer Solution (ppm) to Active Ingredient in Water (ppm) ([1]; Mcylobutanil, 100 g/L loading) | Ratio of Active Ingredient in Dendrimer Solution (ppm) to Active Ingredient in Water (ppm) ([1]; Penconazole, 10 g/L loading) | Ratio of Active Ingredient in Dendrimer Solution (ppm) to Active Ingredient in Water (ppm) ([1]; Penconazole, 100 g/L loading) | Ratio of Active Ingredient in Dendrimer Solution (ppm) to Active Ingredient in Water (ppm) ([1]; Pendimethalin, 10 g/L loading) | Ratio of Active Ingredient in Dendrimer Solution (ppm) to Active Ingredient in Water (ppm) ([1]; Pendimethalin, 100 g/L loading) | Ratio of Active Ingredient in Dendrimer Solution (ppm) to Active Ingredient in Water (ppm) ([1]; Propaquizafop, 10 g/L loading) | Ratio of Active Ingredient in Dendrimer Solution (ppm) to Active Ingredient in Water (ppm) ([1]; Propaquizafop, 100 g/L loading) | Ratio of Active Ingredient in Dendrimer Solution (ppm) to Active Ingredient in Water (ppm) ([1]; Thiamethoxam, 10 g/L loading) | Ratio of Active Ingredient in Dendrimer Solution (ppm) to Active Ingredient in Water (ppm) ([1]; Thiamethoxam, 100 g/L loading) | Ratio of Active Ingredient in Dendrimer Solution (ppm) to Active Ingredient in Water (ppm) ([1]; Thidiazuron, 10 g/L loading) | Ratio of Active Ingredient in Dendrimer Solution (ppm) to Active Ingredient in Water (ppm) ([1]; Thidiazuron, 100 g/L loading) | other results
CCC(COCC(O)CN(CC(=O)[O-])CC(=O)[O-])(COCC(O)CN(CC(=O)[O-])CC(=O)[O-])COCC(O)CN(CC(=O)[O-])CC(=O)[O-].[Na+].[Na+].[Na+].[Na+].[Na+].[Na+] (stereo not shown) [Example 10, [(C)=TMPTGE; (FF)=Et; (IF1)=OH; (BR1)=IDA; (TF)=CO2Na; G=1]] | 7 | 448 | 1 | 1 | 1 | 1 | 2 | 2 | 2 | 2 | 2 | 3 | 11 | 2 | 1 | 1 | 2 | 1 | 19 | 40 | –
CCCN(CCC)c1c([N+](=O)[O-])cc(C(F)(F)F)cc1[N+](=O)[O-] [trifluralin] | – | – | – | – | – | – | – | – | – | – | – | – | – | – | – | – | – | – | – | – | solubility (physchem): 0.22 µg/mL (≈ 0.656 µM)
CCC(COCC(O)CN(CCO)CCO)(COCC(O)CN(CCO)CCO)COCC(O)CN(CCO)CCO (stereo not shown) [Example 2, [(C)=TMPTGE; (FF)=Et; (IF1)=OH; (BR1)=DEA; (TF)=OH; G=1]] | 4 | 967 | 1 | 1 | 1 | 1 | 2 | 4 | 2 | 4 | 2 | 43 | 1 | 6 | 1 | 1 | 2 | 2 | 7 | 39 | rate of brownout [2]: did enhance the rate of brownout
CCC(COCC(O)CN(CCOC)CCOC)(COCC(O)CN(CCOC)CCOC)COCC(O)CN(CCOC)CCOC (stereo not shown) [Example 15, [(C)=TMPTGE; (FF)=Et; (IF1)=OH; (BR1)=DEA; (TF)=OMe; G=1]] | 3 | 475 | 9 | 1 | 1 | 1 | 1 | 2 | 2 | 3 | 2 | 12 | 44 | 41 | 1 | 1 | 2 | 2 | 5 | 17 | –
CCC(COCC(O)CN(CCN)CCN)(COCC(O)CN(CCN)CCN)COCC(O)CN(CCN)CCN (stereo not shown) [Example 14, [(C)=TMPTGE; (IF1)=OH; (BR1)=DETA; (TF)=Primary NH2; G=1]] | 10 | 2740 | 1 | 4 | 1 | 1 | 2 | 2 | 3 | 4 | 2 | 6 | 172 | 15 | 1 | 1 | 2 | 1 | 46 | 329 | –
